Tested on: C. elegans nematode strain with inducible amyloid-β accumulation (CL4176)
Test: Alzheimer's disease paralysis assay
Assay type: in vivo
Source text: The effect of probiotic bacteria and their combinations with other active agents has been studied in C. elegans nematode strains as an animal model for amyloidoses such as Alzheimer's disease. These strains accumulate amyloid-β peptides that form plaques in the nematodes and lead to paralysis of the animals. In certain strains, such as strain CL4176, Aβ accumulation occurs only in response to heat shock. Thus, the Alzheimer's disease pattern is inducible in these strains. The number of paralyzed nematodes after a certain period of time following induction of Aβ accumulation indicates the extent of Alzheimer's disease. Thus, the effect of certain substances to which the nematodes are exposed on the number of paralyzed animals is a measure of the anti-Alzheimer effect of these substances.
Nematodes of strain CL4176 were synchronized at the young larval stage and allowed to grow to the L4 stage on normal growth medium for 72 h at 16° C. The probiotic bacteria to be tested were added to the growth medium. Then the nematodes were exposed to the test substance and the temperature was increased to 25° C. This heat shock induced Aβ accumulation, simulating the onset of Alzheimer's disease. Approximately every 24 h, the number of animals that were still mobile and those that were paralyzed as a result of Aβ accumulation was determined.
C. elegans of strain CL4176 were exposed to a mixture of different probiotic bacteria at a bacterial concentration of 50 cfu (colony-forming units) in this assay. The bacterial mixture contained the following bacterial species: Enterococcus faecium, Bifidobacterium longum, Streptococcus thermophilus, Lactobacillus acidophilus, Lactobacillus plantarum and Bifidobacterium breve. […] In another series of tests, the nematodes were additionally treated with cannabidiol (CBD).
The two probiotic bacterial strains Lactobacillus rhamnosus and Lactobacillus plantarum were allowed to grow to stationary phase and mixed with the normal diet of nematodes (OP50) E. coli bacteria). C. elegans of strain CL4176 at L4 larval stage were exposed to the probiotic bacteria and other active agents in the induction of Aβ accumulation by increasing the temperature to 25° C. The number of paralyzed animals was checked every 24 h and determined after 96 h.
In the described Alzheimer's disease animal model assay, the effect of the bacterial strain Pseudomonas fluorescens was tested. Upon induction of Aβ accumulation by increasing temperature to 25° C., nematodes were exposed to Pseudomonas fluorescens bacteria, curcumin or CBD, or a combination of the bacteria and the active agent. The number of paralyzed nematodes was determined 96 h after induction of Aβ accumulation.

C=C(C)[C@@H]1CCC(C)=C[C@H]1c1c(O)cc(CCCCC)cc1O [CBD, cannabidiol]
number of paralyzed nematodes (0.08% (v/v), 96 h, FIGS. 3 and 4): reduced
paralytic nematodes, individually (Example 3, 96 h after induction of Aβ accumulation, FIGS. 7 and 8): reduction in paralytic nematodes
effect of combination with Pseudomonas fluorescens (combination of Pseudomonas fluorescens and active agent, 96 h after induction of Aβ accumulation, FIGS. 7 and 8): strong synergistic increase in effect
effect of additional treatment with the active agent on the effect of the probiotic bacterial mixture (in combination with probiotic bacterial mixture, 72 h after induction of Aβ accumulation, FIG. 1): significantly increased the effect of probiotic bacteria

CCCCCc1cc2c(c(O)c1C(=O)O)[C@@H]1C=C(C)CC[C@H]1C(C)(C)O2 [THCA, delta-9-tetrahydrocannabinolic acid]
number of paralyzed nematodes (60 μl, 96 h, FIGS. 3 and 4): reduced

Lactobacillus plantarum
paralysis due to Aβ accumulation (bacteria grown to stationary phase, mixed with OP50 E. coli diet, 96 h, FIGS. 3 and 4): reduction in paralysis
prevention of the effects of Aβ accumulation by combination of bacterium with active agents (stationary-phase bacteria combined with curcumin, CBD, THCA or combinations thereof, 96 h, FIGS. 3 and 4): significant to synergistic prevention of the effects of Aβ accumulation

From patent US20230190835A1, “PROBIOTIC BACTERIA FOR TREATING ALZHEIMER'S DISEASE” (RRW B.V., priority 2020, published 2023)
